Measurements as given in ChEMBL document CHEMBL1201862, “PubChem BioAssay data set” (2004).
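Results reflect a 48-hour exposure of cells in 96-well plates to compound at five concentrations. The concentration for 50% growth inhibition is given as GI50.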 Active and inactive are the calls of the source. No stated cut-off is given here; in the data, active = GI50 up to about 1.1 µM and inactive = higher.

Tests used:
Assay in all cases: NCI anticancer screen, dose series, 48 h
SNB-19 = test system: SNB-19
T47D = test system: T47D
TK-10 = test system: TK-10
OVCAR-8 = test system: OVCAR-8
SF-268 = test system: SF-268
HCC 2998 = test system: HCC 2998
PC-3 = test system: PC-3
M14 = test system: M14
IGROV-1 = test system: IGROV-1
NCI-H522 = test system: NCI-H522
SF-539 = test system: SF-539
OVCAR-3 = test system: OVCAR-3
NCI-H226 = test system: NCI-H226
RXF 393 = test system: RXF 393
U-251 = test system: U-251
BT-549 = test system: BT-549
SK-MEL-28 = test system: SK-MEL-28
MCF7 = test system: MCF7
SR = test system: SR
SW-620 = test system: SW-620

With O=C(c1ccccc1)c1nc2ccc(Cl)cc2cc1C(Br)Br the GI50 (SNB-19) was 425 nM (active), the GI50 (T47D) was 200 nM (active) and the GI50 (TK-10) was 687 nM (active). For the same compound, the GI50 (OVCAR-8) was 242 nM (active), the GI50 (SF-268) was 384 nM (active) and the GI50 (HCC 2998) was 316 nM (active). For the same compound, the GI50 (PC-3) was 225 nM (active), the GI50 (M14) was 1.72 µM (inactive) and the GI50 (IGROV-1) was 735 nM (active). For the same compound, the GI50 (NCI-H522) was 1.82 µM (inactive), the GI50 (SF-539) was 246 nM (active) and the GI50 (OVCAR-3) was 326 nM (active). For the same compound, the GI50 (NCI-H226) was 1.68 µM (inactive), the GI50 (RXF 393) was 216 nM (active) and the GI50 (U-251) was 192 nM (active). The GI50 (BT-549) was 144 nM (active), the GI50 (SK-MEL-28) was 261 nM (active) and the GI50 (MCF7) was 314 nM (active). The GI50 (SR) was 1.68 µM (inactive) and the GI50 (SW-620) was 185 nM (active).
For OCCOc1ccc(-c2cc(-c3ccccn3)nc(-c3ccccn3)c2)cc1, the GI50 (SNB-19) was 284 nM (active), the GI50 (T47D) was 553 nM (active) and the GI50 (TK-10) was 889 nM (active). The GI50 (OVCAR-8) was 70 nM (active), the GI50 (SF-268) was 107 nM (active) and the GI50 (HCC 2998) was 57.8 nM (active). The GI50 (PC-3) was 296 nM (active), the GI50 (M14) was 0.219 µM (active) and the GI50 (IGROV-1) was 286 nM (active). The GI50 (NCI-H522) was 0.661 µM (active), the GI50 (SF-539) was 190 nM (active) and the GI50 (OVCAR-3) was 110 nM (active). The GI50 (NCI-H226) was 0.661 µM (active), the GI50 (RXF 393) was 337 nM (active) and the GI50 (U-251) was 148 nM (active). For the same compound, the GI50 (BT-549) was 352 nM (active), the GI50 (SK-MEL-28) was 249 nM (active) and the GI50 (MCF7) was 277 nM (active). For the same compound, the GI50 (SR) was 0.11 µM (active) and the GI50 (SW-620) was 267 nM (active).
